Results: patent US10323038B2, “Pyrazole compounds and methods of making and using same” (ABIDE THERAPEUTICS, INC., priority 2015, dated 2019)

Tests used:
[1] = biological target: MAGL (Mus musculus (Mouse), UniProt O35678); experiment: In vitro competitive activity-based protein profiling, MAGL (mouse); assay type: biochemical; conditions: for inhibition at 1 µM: read-out: MAGL % inh. 1 μM (mouse)
Description: (§1) In Vitro Competitive Activity-Based Protein Profiling.
(§2) Proteomes (mouse brain membrane fraction or cell lysates for mouse assays; human prefrontal cortex or cell membrane fractions for human assays) (50 μL, 1.0 mg/mL total protein concentration) were preincubated with varying concentrations of inhibitors at 37° C. After 30 min, FP—Rh or HT-01 (1.0 μL, 50 μM in DMSO) was added and the mixture was incubated for another 30 min at 37° C. Reactions were quenched with SDS loading buffer (15 μL-4×) and run on SDS-PAGE. Following gel imaging, serine hydrolase activity was determined by measuring fluorescent intensity of gel bands corresponding to MAGL and FAAH using ImageJ 1.43u software.

[2] = biological target: FAAH (Mus musculus (Mouse), UniProt O08914); experiment: In vitro competitive activity-based protein profiling, FAAH (mouse); assay type: biochemical; conditions: for inhibition at 1 µM: read-out: FAAH % inh. 1 μM (mouse)
Sequence of FAAH (O08914 whole entry): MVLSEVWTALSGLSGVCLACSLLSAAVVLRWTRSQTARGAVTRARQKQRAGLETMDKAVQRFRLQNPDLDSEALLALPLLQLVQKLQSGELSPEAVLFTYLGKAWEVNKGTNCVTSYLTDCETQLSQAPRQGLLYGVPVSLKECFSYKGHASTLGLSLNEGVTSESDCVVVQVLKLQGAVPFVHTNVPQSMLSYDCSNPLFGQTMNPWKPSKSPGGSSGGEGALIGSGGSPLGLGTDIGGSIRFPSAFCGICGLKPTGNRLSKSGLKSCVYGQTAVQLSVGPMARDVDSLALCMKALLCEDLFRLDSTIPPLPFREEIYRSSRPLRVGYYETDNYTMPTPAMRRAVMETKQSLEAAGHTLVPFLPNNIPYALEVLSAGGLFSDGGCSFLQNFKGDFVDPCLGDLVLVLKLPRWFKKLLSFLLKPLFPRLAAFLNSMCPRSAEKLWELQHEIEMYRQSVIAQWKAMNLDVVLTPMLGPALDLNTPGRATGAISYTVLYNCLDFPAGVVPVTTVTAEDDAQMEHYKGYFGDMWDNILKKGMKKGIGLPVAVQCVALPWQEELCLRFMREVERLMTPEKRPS
Description: as §1, §2

Sequence of MAGL (O35678 whole entry): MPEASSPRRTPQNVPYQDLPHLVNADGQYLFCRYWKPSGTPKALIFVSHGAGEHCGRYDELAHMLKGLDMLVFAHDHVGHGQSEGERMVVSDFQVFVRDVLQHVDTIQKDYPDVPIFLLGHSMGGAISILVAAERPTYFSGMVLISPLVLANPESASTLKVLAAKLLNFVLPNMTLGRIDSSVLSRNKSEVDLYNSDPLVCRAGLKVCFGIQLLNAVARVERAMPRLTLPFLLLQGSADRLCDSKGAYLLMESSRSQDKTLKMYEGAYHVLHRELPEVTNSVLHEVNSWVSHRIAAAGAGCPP

SMILES	IC50 [1]	inhibition at 1 µM [1]	IC50 [2]	inhibition at 1 µM [2]
CC(=O)N(C)c1cnn(C(=O)N2CC3CN(Cc4ccccc4C(F)(F)F)CC3C2)c1 (stereo not shown) [Example 96, N-methyl-N-(1-(5-(2-(trifluoromethyl)benzyl)octahydropyrrolo[3,4-c]pyrrole-2-carbonyl)-1H-pyrazol-4-yl)acetamide]	≤ 100 nM	≥ 75%	≤ 100 nM	≥ 75%
CC(=O)N(C)c1cnn(C(=O)N2CCC3(CCN(Cc4cc(C(F)(F)F)ccc4Cl)C3)C2)c1 (stereo not shown) [Example 71, N-(1-(7-(2-chloro-5-(trifluoromethyl)benzyl)-2,7-diazaspiro[4.4]nonane-2-carbonyl)-1H-pyrazol-4-yl)-N-methylacetamide]	–	≥ 75%	–	≥ 75%
CC(=O)N(C)c1cnn(C(=O)N2C[C@H]3C[C@H](N(Cc4cccc(Cl)c4)C(C)=O)C[C@H]3C2)c1 [Example 173, N-(3-chlorobenzyl)-N-(trans-2-(4-(N-methylacetamido)-1H-pyrazole-1-carbonyl)octahydrocyclopenta[c]pyrrol-5-yl)acetamide]	–	≥ 75%	–	0 to 25%
CC(=O)N(C)c1cnn(C(=O)N2CC3CN(Cc4cccc(C(F)(F)F)c4)CC3C2)c1 (stereo not shown) [Example 117, N-methyl-N-(1-(5-(3-(trifluoromethyl)benzyl)octahydropyrrolo[3,4-c]pyrrole-2-carbonyl)-1H-pyrazol-4-yl)acetamide]	≤ 100 nM	≥ 75%	≤ 100 nM	≥ 75%
CC(=O)N(C)c1cnn(C(=O)N2CC3CN(Cc4cc(C(F)(F)F)ccc4C(F)(F)F)CC3C2)c1 (stereo not shown) [Example 126, N-(1-(5-(2,5-bis(trifluoromethyl)benzyl)octahydropyrrolo[3,4-c]pyrrole-2-carbonyl)-1H-pyrazol-4-yl)-N-methylacetamide]	–	≥ 75%	–	≥ 75%
CC(=O)N(C)c1cnn(C(=O)N2CC3CN(Cc4ccc(OC5CCN(C6CC6)CC5)cc4Cl)CC3C2)c1 (stereo not shown) [Example 270, N-(1-(5-(2-chloro-4-((1-cyclopropylpiperidin-4-yl)oxy)benzyl)octahydropyrrolo[3,4-c]pyrrole-2-carbonyl)-1H-pyrazol-4-yl)-N-methylacetamide]	–	≥ 75%	–	≥ 75%
CC(=O)N(C)c1cnn(C(=O)N2CCN(Cc3ccc(N4CCOCC4)cc3C)CC2)c1 [Example 204, N-methyl-N-(1-(4-(2-methyl-4-morpholinobenzyl)piperazine-1-carbonyl)-1H-pyrazol-4-yl)acetamide]	100 to 1000 nM	≥ 75%	100 to 1000 nM	≥ 75%
CC(=O)N(C)c1cnn(C(=O)N2C[C@H]3C[C@@H](N(C)Cc4cccc(Cl)c4)C[C@H]3C2)c1 [Example 141, N-(1-(cis-5-((3-chlorobenzyl)(methyl)amino)octahydrocyclopenta[c]pyrrole-2-carbonyl)-1H-pyrazol-4-yl)-N-methylacetamide]	100 to 1000 nM	50 to 75%	≤ 100 nM	≥ 75%
CC(=O)N(C)c1cnn(C(=O)N2CCC3(CC2)CN(Cc2ccccc2N2CCOCC2)C3)c1 [Example 46, N-methyl-N-(1-(2-(2-morpholinobenzyl)-2,7-diazaspiro[3.5]nonane-7-carbonyl)-1H-pyrazol-4-yl)acetamide]	–	50 to 75%	–	0 to 25%
CC(=O)N(C)c1cnn(C(=O)N2CCC3(CCN(Cc4cccc(Cl)c4Cl)C3)C2)c1 (stereo not shown) [Example 59, N-(1-(7-(2,3-dichlorobenzyl)-2,7-diazaspiro[4.4]nonane-2-carbonyl)-1H-pyrazol-4-yl)-N-methylacetamide]	100 to 1000 nM	≥ 75%	≤ 100 nM	≥ 75%
CC(=O)N(C)c1cnn(C(=O)N2CCN(Cc3ccc(C(F)(F)F)cc3N3C4CCC3COC4)CC2)c1 [Example 195, N-(1-(4-(2-(3-oxa-8-azabicyclo[3.2.1]octan-8-yl)-4-(trifluoromethyl)benzyl)piperazine-1-carbonyl)-1H-pyrazol-4-yl)-N-methylacetamide]	≤ 100 nM	≥ 75%	1000 to 10000 nM	0 to 25%
CC(=O)N(C)c1cnn(C(=O)N2CCC3(CCN(Cc4cc(N5CCOCC5)cc(C(F)(F)F)c4)C3)C2)c1 (stereo not shown) [Example 68, N-methyl-N-(1-(7-(3-morpholino-5-(trifluoromethyl)benzyl)-2,7-diazaspiro[4.4]nonane-2-carbonyl)-1H-pyrazol-4-yl)acetamide]	100 to 1000 nM	≥ 75%	≤ 100 nM	≥ 75%

Other lines, results leading:

IC50 [1]	inhibition at 1 µM [1]	IC50 [2]	inhibition at 1 µM [2]	SMILES
1000 to 10000 nM	0 to 25%	100 to 1000 nM	≥ 75%	CS(=O)(=O)Nc1cnn(C(=O)N2CC3CN(Cc4ccc(Cl)cc4)CC3C2)c1 (stereo not shown) [Example 8, N-(1-(5-(4-chlorobenzyl)octahydropyrrolo[3,4-c]pyrrole-2-carbonyl)-1H-pyrazol-4-yl)methanesulfonamide]
≤ 100 nM	≥ 75%	≤ 100 nM	≥ 75%	CC(=O)N(C)c1cnn(C(=O)N2CCC3(CC2)CN(Cc2cccc(Cl)c2)C3)c1 [Example 34, N-(1-(2-(3-chlorobenzyl)-2,7-diazaspiro[3.5]nonane-7-carbonyl)-1H-pyrazol-4-yl)-N-methylacetamide]
–	≥ 75%	–	25 to 50%	CC(=O)N(C)c1cnn(C(=O)N2C[C@H]3C[C@@H](N(Cc4cccc(Cl)c4)C(C)=O)C[C@H]3C2)c1 [Example 170, N-(3-chlorobenzyl)-N-(cis-2-(4-(N-methylacetamido)-1H-pyrazole-1-carbonyl)octahydrocyclopenta[c]pyrrol-5-yl)acetamide]
≤ 100 nM	≥ 75%	≤ 100 nM	≥ 75%	CC(=O)N(C)c1cnn(C(=O)N2CC3CN(Cc4ccc(OCc5ccccc5)cc4)CC3C2)c1 (stereo not shown) [Example 248, N-(1-(5-(4-(benzyloxy)benzyl)octahydropyrrolo[3,4-c]pyrrole-2-carbonyl)-1H-pyrazol-4-yl)-N-methylacetamide]
≤ 100 nM	≥ 75%	100 to 1000 nM	≥ 75%	CC(=O)N(C)c1cnn(C(=O)N2CCN(Cc3cccc(N4CCCC4)c3)CC2)c1 [Example 208, N-methyl-N-(1-(4-(3-(pyrrolidin-1-yl)benzyl)piperazine-1-carbonyl)-1H-pyrazol-4-yl)acetamide]
100 to 1000 nM	≥ 75%	≤ 100 nM	≥ 75%	CC(=O)N(C)c1cnn(C(=O)N2CC3CN(Cc4ccc(Cl)c(Cl)c4)CC3C2)c1 (stereo not shown) [Example 12, N-(1-(5-(3,4-dichlorobenzyl)octahydropyrrolo[3,4-c]pyrrole-2-carbonyl)-1H-pyrazol-4-yl)-N-methylacetamide]
≤ 100 nM	≥ 75%	100 to 1000 nM	25 to 50%	CC(=O)N(C)c1cnn(C(=O)N2CCN(Cc3ccc(C(F)(F)F)cc3N3CCCC3)CC2)c1 [Example 191, N-methyl-N-(1-(4-(2-(pyrrolidin-1-yl)-4-(trifluoromethyl)benzyl)piperazine-1-carbonyl)-1H-pyrazol-4-yl)acetamide]
